In one assay the test system is pThr-181 tau. The assay can be described thus: AT270 (pThr-181 tau) immunofluorescence. It counts as cell-based, human. The conditions noted are these: 48 h. The protocol: For immunostaining, cells were seeded in differentiation medium, on 24-well microplates containing PLO/FN-coated 13 mm Ø coverslips, and treated for 48 h as previously described. On the readout day, the medium was removed and cells were fixed, permeabilized and blocked as before. Primary antibody dilutions were made in 1.5% NHS in PBS (Supplementary Table S1) and incubated overnight at 4 °C. On the following day, the coverslips were washed three times with PBS and incubated with host-specific fluorescence secondary antibodies (Supplementary Table S1), for 2 h at RT, protected from light. After another three washes with PBS, cell nuclei were stained with 1:5,000 DAPI (4’,6-diamidino-2-phenylindole, Thermo Fisher Scientific) in PBS, for 15 min at RT. The coverslips were mounted in mowiol and left to dry for 24 h before imaging. Image acquisition for FI quantification was done with a 200 × magnification (20 × objective, 10 × intermediate magnification), or 400x (40 × objective, 10 × intermediate magnification) in the case of pSC-35 and AT8 immunostaining, on a fluorescence microscope Leica-DFC9000GTC (Leica). In the case of phospho-tau AT8, Z-stacks consisting of 18 plane images with a step size of 1 μm were acquired. The image acquisition parameters were identical for all conditions. Quantification of 8-OHdG (8-hydroxyguanosine) FI and tau species was performed using the ImageJ software. Ten-to-fifteen images per condition across triplicates, from different view fields, were used for this purpose. Briefly, TIFF exported images were submitted to background subtraction using the rolling ball method with a radius of 50 pixels. For 8-OHdG analysis, a channel-specific threshold was applied to all images to define the ROI and FI was measured and normalized to the cell number, determined by the DAPI channel. The average value of the different view fields per experimental condition was taken and reported as fold change compared to the control (DMSO-treated) condition. For the analysis of phospho-tau AT270 and pan-tau reactivity, channel specific thresholds were applied to all images. The DAPI channel was used to define nuclei from viable cells, by selecting particles with a size above 15 µm^2 and a circularity of 0.3–1.0. The obtained mask was submitted to “close” and “fill holes” processes to smooth the objects and fill in small holes, followed by nine “dilations” and one “watershed” to obtain a ROI covering exclusively the soma of viable cells. The obtained mask was combined with threshold images of phospho-tau AT270 and pan-tau in order to define the respective ROI of each tau species. These masks were used to quantify the number of somas expressing each of these tau species, as well as the respective FI. The number of AT270-positive somas was divided by the number of pan-tau-positive somas and expressed as a percentage. The AT270 FI was normalized to the pan-tau FI and the ratio presented as fold change relative to the control (DMSO-treated) condition. For quantification of pSC-35 and AT8 speckle number and FI, we used CellProfiler™ 4 (https://cellprofiler.org/, Broad Institute Inc., Cambridge, MA, USA) speckle counting pipeline. Twenty-to-thirty images per condition across triplicates were used for this purpose. ImageJ BIOP JACoP plugin was used for estimating co-localization of AT8 with DAPI-stained nuclei. Data were reported as fold change compared to the control (DMSO-treated) condition, or as Pearsonʹs coefficient values in case the of AT8 co-localization data.

A further assay deals with LUHMES cells. The assay can be described thus: Neurite arborization analysis (Tuj-1 immunofluorescence). It counts as cell-based, human. The conditions noted are these: 48 h. The protocol: Cells were seeded in differentiation medium, onto 24-well microplates containing PLO/FN coated 13 mm Ø coverslips, and submitted to the described pharmacological treatments for 48 h. After this period, the medium was removed and cells were washed once with warm HBSS, and fixed with 4% PFA (paraformaldehyde) in PBS, for 20 min at RT (room temperature). After fixation, cells were washed twice with PBS and permeabilized with 0.1% Triton™ X-100 in PBS, for 20 min at RT. Next, cells were blocked in 1.5% NHS (normal horse serum) in PBS, for 1 h at RT, and incubated overnight with 1:1,000 Tuj-1 Alex 549-conjugated antibody (#801208, BioLegend, San Diego, CA, USA) in 1.5% NHS in PBS. After washing three times with PBS, cell nuclei were stained with 1:5,000 DAPI (4ʹ,6-diamidino-2-phenylindole, Thermo Fisher Scientific) in PBS, for 15 min at RT. The coverslips were mounted in mowiol, and left to dry for 24 h before imaging. Ten to fifteen images per condition, across triplicates, from different fields of view were taken on a fluorescence microscope Leica-DFC9000GTC (Leica) with 200 × magnification (20 × objective, 10 × intermediate magnification). Identical acquisition parameters were used for all images. Neurites density and arborization were quantified on TIFF exported images using the “neurite analyzer” plugin described before. The average value of the different view fields per experimental condition was taken and reported as fold change compared to the control (DMSO-treated) condition.

Where [1] appears, read: protective concentration of compound + 20 nM annonacin, vs annonacin.
Where [2] appears, read: protective concentration of compound + 20 nM annonacin.

Consider `Cn1c(Nc2nc3ccc(C(F)(F)F)cc3s2)nc2cc(C(=O)NCCOCCO)ccc21` [HPP-D], for which the “pThr-181 tau (AT270) normalized to pan-tau, neuritic and somatic compartment” value (from here on “pThr-181 tau (AT270) normalized”) in the assay on pThr-181 tau (setting [1]) is recorded as “attenuated annonacin-induced tau hyperphosphorylation”. Moreover, in the assay on LUHMES cells (setting [2]), the “number of quadruple points” value was “approximately 0.50 fold over control” and the total branch length result is “significantly denser neural arborizations compared with the annonacin condition”.
`CCCCCCCCCCCC[C@@H](O)[C@H]1CC[C@H]([C@H](O)CCCC[C@H](O)CCCCC[C@@H](O)CC2=CC(C)OC2=O)O1` (stereo partly drawn) [annonacin]: in the assay on pThr-181 tau (20 nM annonacin alone), the AT270-positive somas result is given as “more than 90%”; the “AT270 reactivity normalized to pan-tau, in the soma area” value is given as 1.9 ratio; the “pThr-181 tau (AT270) normalized” value turned out to be 3.4 ratio. Further, in the assay on LUHMES cells (20 nM annonacin alone), the “number of quadruple points” value is reported as 0.31 fold over control and the total branch length is given as 0.44 fold over control.
Turning to `O=C1[C@H](CC[C@H](O)c2ccc(F)cc2)[C@@H](c2ccc(O)cc2)N1c1ccc(F)cc1` [ezetimibe], the AT270-positive somas with pThr-181 tau (15 μM ezetimibe + 20 nM annonacin) turned out to be 75%. In addition, the “pThr-181 tau (AT270) normalized” value with pThr-181 tau (setting [1]) is on record as “attenuated annonacin-induced tau hyperphosphorylation”. For the same molecule, in the assay with LUHMES cells (setting [2]), the “number of quadruple points” value was found to be 0.71 fold over control and the total branch length entry is “significantly denser neural arborizations compared with the annonacin condition”.
In the case of `C=CC(C)(C)c1cc(/C=C/C(=O)c2ccc(O)cc2)c(OC)cc1O` [licochalcone A], the “pThr-181 tau (AT270) normalized” value in the assay on pThr-181 tau (setting [1]) is “attenuated annonacin-induced tau hyperphosphorylation”. For the same molecule, in the assay on LUHMES cells (setting [2]), the “number of quadruple points” value is given as 0.81 fold over control and the total branch length entry is given as “significantly denser neural arborizations compared with the annonacin condition”.
